Read-outs that look alike come from different tables or passages of the source.
Columns and labels:
[1] = system: Salmonella typhimurium TA98; conditions: TA 98
Description: (§1) In the preincubation experiment, test compounds and mutagen, each having a volume of 0.1 mL of varying concentrations, were preincubated at 37°C for 30 min and then 0.1 mL of 1 × 10^7 CFU/mL density of the bacterial culture was added, followed by the addition of 2.5 mL of top agar at 45°C (containing 0.5% NaCl and 0.6% agar) supplemented with 0.5 mM histidine-biotin. […] The combined solutions were vortexed and poured onto minimal glucose plates (40% glucose solution and Vogel Bonner medium). The plates were incubated at 37°C for 48 h and the numbers of histidine-independent revertants colonies were scored.
(§2) Survival of the bacteria was routinely monitored for each experiment. Parallel controls were run with compounds alone at all concentrations to test the possible toxicity. The concentrations of the test samples for investigating the antimutagenicity were 50, 100, 200, and 500 μM. […] All the test samples and mutagens were dissolved in DMSO (final conc., 0.01%). […] Plates were set up in triplicate for each concentration and the entire experiment was repeated three times. Inhibition of mutagenicity was expressed as percentage decrease of reverse mutation and calculated as (1) Percent inhibition=[(a−b)/(a−c)]×100, where a = number of histidine revertants induced by mutagen, b = number of histidine revertants induced by mutagen in the presence of test compound, and c = number of revertants induced in negative control.

[2] = system: Salmonella typhimurium strains TA97a, TA98, TA100, and TA102; test: Ames test, statements over all tester strains
Description: as §1, §2

[3] = system: Salmonella typhimurium TA102
Description: as §1, §2

[4] = system: Salmonella typhimurium TA97a; conditions: TA 97a
Description: as §1, §2

[5] = 50 μM alone (negative control), BP tables
[6] = 50 μM alone (negative control), MMS tables
[7] = 50 μM alone (negative control), NaN3 tables
[8] = 100 μM alone (negative control), 2AF tables
[9] = 100 μM alone (negative control), BP tables
[10] = 100 μM alone (negative control), MMS tables
[11] = 100 μM alone (negative control), NaN3 tables
[12] = 250 μM alone (negative control), BP tables
[13] = 250 μM alone (negative control), MMS tables
[14] = 250 μM alone (negative control), NaN3 tables
[15] = 500 μM alone (negative control), 2AF tables
[16] = 500 μM alone (negative control), BP tables
[17] = 500 μM alone (negative control), MMS tables
[18] = 500 μM alone (negative control), NaN3 tables

Compound: O=C1O[C@H]2[C@@H]3OC(=O)c4cc(O)c(O)c(O)c4-c4c(O)c(O)c5oc(=O)c6c(c(O)c(O)c7oc(=O)c4c5c76)-c4c(cc(O)c(O)c4O)C(=O)OC[C@H]3OC(O)[C@@H]2OC(=O)c2cc(O)c(O)c(O)c2-c2c1cc(O)c(O)c2O (mixture of isomers) [Punicalagin]
- Number of His+ revertants colonies/plate [1, 5]: 40.7 ± 2.9 colonies/plate
- Number of His+ revertants colonies/plate [1, 6]: 42.3 ± 1.8 colonies/plate
- Number of His+ revertants colonies/plate [1, 7]: 42.3 ± 1.8 colonies/plate
- Number of His+ revertants colonies/plate [1, 8]: 36.3 ± 1.8 colonies/plate
- Number of His+ revertants colonies/plate [1, 9]: 36.3 ± 1.8 colonies/plate
- Number of His+ revertants colonies/plate [1, 10]: 35.7 ± 1.8 colonies/plate
- Number of His+ revertants colonies/plate [1, 11]: 35.7 ± 1.8 colonies/plate
- Number of His+ revertants colonies/plate [1, 12]: 31.0 ± 1.7 colonies/plate
- Number of His+ revertants colonies/plate [1, 13]: 30.0 ± 1.2 colonies/plate
- Number of His+ revertants colonies/plate [1, 14]: 30.0 ± 1.2 colonies/plate
- Number of His+ revertants colonies/plate [1, 15]: 22.3 ± 1.8 colonies/plate
- Number of His+ revertants colonies/plate [1, 16]: 22.3 ± 1.8 colonies/plate
- Number of His+ revertants colonies/plate [1, 17]: 27.3 ± 2.0 colonies/plate
- Number of His+ revertants colonies/plate [1, 18]: 27.3 ± 2.0 colonies/plate
- toxicity to Salmonella typhimurium strains ([2]; 50–500 μM, absence of S9): No toxicity
- inhibition at 500 µM ([2]; Salmonella enterica, TYPHIMURIUM, read-out: inhibition of 2AF- and BP-induced mutagenicity (range over strains)): 76.7 to 85%
- mutagenic activity ([2]; TA97a, TA98, TA100, TA102, with or without S9, plate incorporation assay): No mutagenic activity
- maximum inhibition of mutagenicity ([2]; against sodium azide, MMS, BP, 2AF, 50–500 μM): up to 90%
- Number of His+ revertants colonies/plate ([3]; Salmonella typhimurium): 356.0 ± 10.4 colonies/plate
- Number of His+ revertants colonies/plate ([3]; TA 102, 50 μM alone (negative control), 2AF tables): 320.0 ± 21.9 colonies/plate
- Number of His+ revertants colonies/plate ([3]; TA 102, 50 μM alone (negative control), BP tables): 320.0±21.9 colonies/plate
- Number of His+ revertants colonies/plate ([3]; TA 102, 50 μM alone (negative control), MMS tables): 292.0 ± 7.7 colonies/plate
- Number of His+ revertants colonies/plate ([3]; TA 102, 50 μM alone (negative control), NaN3 tables): 306.7 ± 13.3 colonies/plate
- Number of His+ revertants colonies/plate ([3]; TA 102, 100 μM alone (negative control), 2AF tables): 341.0 ± 18.3 colonies/plate
- Number of His+ revertants colonies/plate ([3]; TA 102, 100 μM alone (negative control), BP tables): 341.0 ± 18.3 colonies/plate
- Number of His+ revertants colonies/plate ([3]; TA 102, 100 μM alone (negative control), MMS tables): 278.0 ± 12.8 colonies/plate
- Number of His+ revertants colonies/plate ([3]; TA 102, 100 μM alone (negative control), NaN3 tables): 275.3 ± 22.1 colonies/plate
- Number of His+ revertants colonies/plate ([3]; TA 102, 250 μM alone (negative control), BP tables): 356.0 ± 10.4 colonies/plate
- Number of His+ revertants colonies/plate ([3]; TA 102, 250 μM alone (negative control), MMS tables): 255.0 ± 13.2 colonies/plate
- Number of His+ revertants colonies/plate ([3]; TA 102, 250 μM alone (negative control), NaN3 tables): 250.0 ± 22.9 colonies/plate
- Number of His+ revertants colonies/plate ([3]; TA 102, 500 μM alone (negative control), 2AF tables): 358.0 ± 19.9 colonies/plate
- Number of His+ revertants colonies/plate ([3]; TA 102, 500 μM alone (negative control), BP tables): 358.0 ± 19.9 colonies/plate
- Number of His+ revertants colonies/plate ([3]; TA 102, 500 μM alone (negative control), MMS tables): 254.0 ± 14.3 colonies/plate
- Number of His+ revertants colonies/plate ([3]; TA 102, 500 μM alone (negative control), NaN3 tables): 231.7 ± 24.8 colonies/plate
- Number of His+ revertants colonies/plate ([4]; 50 μM alone (negative control), 2AF tables): 132.3 ± 8.8 colonies/plate
- Number of His+ revertants colonies/plate [4, 5]: 132.3 ± 8.8 colonies/plate
- Number of His+ revertants colonies/plate [4, 6]: 141.3 ± 5.2 colonies/plate
- Number of His+ revertants colonies/plate [4, 7]: 141.3 ± 5.2 colonies/plate
- Number of His+ revertants colonies/plate [4, 8]: 158.0 ± 7.4 colonies/plate
- Number of His+ revertants colonies/plate [4, 9]: 158.0 ± 7.4 colonies/plate
- Number of His+ revertants colonies/plate [4, 10]: 153.7 ± 9.2 colonies/plate
- Number of His+ revertants colonies/plate [4, 11]: 153.7 ± 9.2 colonies/plate
- Number of His+ revertants colonies/plate ([4]; 250 μM alone (negative control), 2AF tables): 165.7 ± 10.9 colonies/plate
- Number of His+ revertants colonies/plate [4, 12]: 165.7 ± 10.9 colonies/plate
- Number of His+ revertants colonies/plate [4, 13]: 158.3 ± 7.1 colonies/plate
- Number of His+ revertants colonies/plate [4, 14]: 158.3 ± 7.1 colonies/plate
- Number of His+ revertants colonies/plate [4, 15]: 188.0 ± 9.5 colonies/plate
- Number of His+ revertants colonies/plate [4, 16]: 188.0 ± 9.5 colonies/plate
- Number of His+ revertants colonies/plate [4, 17]: 174.0 ± 6.4 colonies/plate
- Number of His+ revertants colonies/plate [4, 18]: 174.0 ± 6.4 colonies/plate
